Tested on: 743489-274-T-PDC complex spheroid viability
Assay: Anticancer human tumor 743489-274-T-PDC patient-derived renal cell carcinoma cell line growth inhibition
Conditions: for IC50: curve of first compound; for viability, T/C: stronger effect = lower value
Procedure, shortened: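 Complex spheroids of tumor cells with HUVEC and human MSCs, exposed to iadademstat combined with other agents. Each agent tested in half-log steps from near clinical Cmax (else 10 microM top), DMSO ≤0.25%.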

[1] = second compound 0.1 µM, first compound 0.0316 µM
[2] = second compound 0.1 µM, first compound 0.1 µM
[3] = second compound 0.1 µM, first compound 0.316 µM
[4] = second compound 0.1 µM, first compound 1 µM
[5] = second compound 0.1 µM, first compound 3.16 µM
[6] = second compound 0.1 µM, first compound 10 µM
[7] = second compound 0.316 µM, first compound 0.0316 µM
[8] = second compound 0.316 µM, first compound 0.1 µM
[9] = second compound 0.316 µM, first compound 0.316 µM
[10] = second compound 0.316 µM, first compound 1 µM
[11] = second compound 0.316 µM, first compound 3.16 µM
[12] = second compound 0.316 µM, first compound 10 µM
[13] = second compound 1 µM, first compound 0.0316 µM
[14] = second compound 1 µM, first compound 0.1 µM
[15] = second compound 1 µM, first compound 0.316 µM
[16] = second compound 1 µM, first compound 1 µM
[17] = second compound 1 µM, first compound 3.16 µM
[18] = second compound 1 µM, first compound 10 µM
[19] = second compound 3.16 µM, first compound 0.0316 µM
[20] = second compound 3.16 µM, first compound 0.1 µM
[21] = second compound 3.16 µM, first compound 0.316 µM
[22] = second compound 3.16 µM, first compound 1 µM
[23] = second compound 3.16 µM, first compound 3.16 µM
[24] = second compound 3.16 µM, first compound 10 µM
[25] = second compound 10 µM, first compound 0.0316 µM
[26] = second compound 10 µM, first compound 0.1 µM
[27] = second compound 10 µM, first compound 0.316 µM
[28] = second compound 10 µM, first compound 1 µM
[29] = second compound 10 µM, first compound 3.16 µM
[30] = second compound 10 µM, first compound 10 µM
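Note: spheroids exposed to compounds for 7 days before readout.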
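Throughout, for viability, T/C: 100% = DMSO vehicle control wells.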

| Compound | IC50 (second compound 0.1 µM) | IC50 (second compound 0.316 µM) | IC50 (second compound 1 µM) | IC50 (second compound 3.16 µM) | IC50 (second compound 10 µM) | viability, T/C [1] | viability, T/C [2] | viability, T/C [3] | viability, T/C [4] | viability, T/C [7] | viability, T/C [8] | viability, T/C [9] | viability, T/C [10] | viability, T/C [13] | viability, T/C [14] | viability, T/C [15] | viability, T/C [16] | viability, T/C [19] | viability, T/C [20] | viability, T/C [21] | further results |
| --- | --- | --- | --- | --- | --- | --- | --- | --- | --- | --- | --- | --- | --- | --- | --- | --- | --- | --- | --- | --- | --- |
| CC(C)c1c(-c2ccccc2)nc2c(C#N)c[nH]n2c1=O + NC1CC1c1ccc(-c2cccc(O)c2)cc1 | > 10000 nM | > 10000 nM | > 10000 nM | > 10000 nM | > 10000 nM | 110% | 112% | 131% | 105% | 104% | 107% | 134% | 100% | 110% | 117% | 108% | 116% | 106% | 108% | 114% | viability, T/C [5]: 113%; viability, T/C [6]: 109%; viability, T/C [11]: 115%; viability, T/C [12]: 102%; viability, T/C [17]: 108%; viability, T/C [18]: 114%; viability, T/C [22]: 111%; viability, T/C [23]: 105%; viability, T/C [24]: 124%; viability, T/C [25]: 130%; viability, T/C [26]: 105%; viability, T/C [27]: 116%; viability, T/C [28]: 102%; viability, T/C [29]: 106%; viability, T/C [30]: 109% |
| CC1COCCN1c1cc(-c2ccnn2C)c2ccnc(-c3ccn[nH]3)c2n1 (stereo not given) + NC1CC1c1ccc(-c2cccc(O)c2)cc1 | 448 nM | > 1000 nM | 716 nM | 540 nM | 518 nM | 85.2% | 62.9% | 51.2% | 44.3% | 85.5% | 65.5% | 64.5% | 51.9% | 82.5% | 68.9% | 64.7% | 44.5% | 83.8% | 75.6% | 55.5% | viability, T/C (second compound 0.1 µM, first compound 0.00316 µM): 109%; viability, T/C (second compound 0.1 µM, first compound 0.01 µM): 88%; viability, T/C (second compound 0.316 µM, first compound 0.00316 µM): 111%; viability, T/C (second compound 0.316 µM, first compound 0.01 µM): 104%; viability, T/C (second compound 1 µM, first compound 0.00316 µM): 98.2%; viability, T/C (second compound 1 µM, first compound 0.01 µM): 103%; viability, T/C (second compound 3.16 µM, first compound 0.00316 µM): 101%; viability, T/C (second compound 3.16 µM, first compound 0.01 µM): 90.6%; viability, T/C [22]: 41.5%; viability, T/C (second compound 10 µM, first compound 0.00316 µM): 90.8%; viability, T/C (second compound 10 µM, first compound 0.01 µM): 98.1%; viability, T/C [25]: 80%; viability, T/C [26]: 75%; viability, T/C [27]: 53.7%; viability, T/C [28]: 43.6% |
| COc1ccc([C@@H](O)c2cc(-c3ncnc4cc(N5CCOCC5)ccc34)c(F)cc2Cl)nn1 + NC1CC1c1ccc(-c2cccc(O)c2)cc1 | 643 nM | 979 nM | 833 nM | 611 nM | 918 nM | 101% | 93.6% | 63% | 38.6% | 99.7% | 92.7% | 68.8% | 57.4% | 94.3% | 93% | 80.2% | 43.4% | 93.6% | 94.4% | 59.4% | viability, T/C [5]: 31.9%; viability, T/C [6]: 15.4%; viability, T/C [11]: 24.1%; viability, T/C [12]: 32%; viability, T/C [17]: 25%; viability, T/C [18]: 16.8%; viability, T/C [22]: 41.2%; viability, T/C [23]: 27.5%; viability, T/C [24]: 17.4%; viability, T/C [25]: 99.1%; viability, T/C [26]: 111%; viability, T/C [27]: 74.3%; viability, T/C [28]: 49.5%; viability, T/C [29]: 27.1%; viability, T/C [30]: 16.6% |

Reference: PubChem BioAssay AID1918942 (Molecular Pharmacology Branch, DTP, NCI, 2023)
